Assay results reported in US11999727B2 (Tango Therapeutics, Inc., priority 2020, dated 2024).
pIC50: −log10 of the molar value.

Experiments:
PRMT5 [1] = target: T1, PRMT5 (Homo sapiens, UniProt O14744); test: PRMT5 biochemical IC50 assay with SAM as cofactor; conditions: PRMT5, SAM as cofactor; read-out: SAM IC50
T1 construct: purchased Viva (custom protein)

[2] = system: HAP1 MTAP-intact cell line; test: SDMA in-cell western assay, HAP1 MTAP-intact; assay type: cell-based; conditions: Homo sapiens, HAP1, SDMA in-cell western, HAP1 MTAP-intact; read-out: MTAP HAP1 intact IC50
Outline: (§1)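 Compounds were tested in HAP1 cells differing only in MTAP status (endogenous expression versus null). Cellular SDMA levels were then measured by in-cell western, giving an IC50 in each background.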

[3] = system: HAP1 MTAP-deleted cell line; test: Viability assay, MTAP-deleted cell line; assay type: cell-based; conditions: Homo sapiens, HAP1, viability assay, MTAP-deleted cell line; read-out: HAP1 MTAP deleted viability
From the text: Table 1 additionally indicates IC50 values in a viability assay for the MTAP-deleted cell line (column 10), indicating the effect of treatment with compound on cell survival.

PRMT5 [4] = target: T1, PRMT5; test: PRMT5 biochemical IC50 assay with no cofactor; conditions: PRMT5, no cofactor; read-out: No Cofactor/rel IC50
From the text: Table 1 indicates IC50 values (μM) against PRMT5 for exemplary compounds in the presence of SAM as cofactor, with no cofactor, and with MTA as cofactor, respectively (columns 4-6). […] Ki values can be calculated from the IC50 values as described in the Examples section. As detailed in the Examples section, for the assay performed in the presence of SAM, IC50=Ki×1.5 (Ki=IC50/1.5).

PRMT5 [5] = target: T1, PRMT5; test: PRMT5 biochemical IC50 assay with MTA as cofactor; conditions: PRMT5, MTA as cofactor; read-out: MTA IC50
[6] = system: HAP1 MTAP-deleted cell line; test: SDMA in-cell western assay, HAP1 MTAP-deleted; assay type: cell-based; conditions: for pIC50: Homo sapiens, HAP1, SDMA in-cell western, HAP1 MTAP-deleted, read-out: HAP1 MTAP deleted IC50; for MTAP intact/deleted ratio: IC50 ratio HAP1 MTAP-intact / HAP1 MTAP-deleted, SDMA in-cell western
Outline: as §1

T1 sequence (O14744 whole entry): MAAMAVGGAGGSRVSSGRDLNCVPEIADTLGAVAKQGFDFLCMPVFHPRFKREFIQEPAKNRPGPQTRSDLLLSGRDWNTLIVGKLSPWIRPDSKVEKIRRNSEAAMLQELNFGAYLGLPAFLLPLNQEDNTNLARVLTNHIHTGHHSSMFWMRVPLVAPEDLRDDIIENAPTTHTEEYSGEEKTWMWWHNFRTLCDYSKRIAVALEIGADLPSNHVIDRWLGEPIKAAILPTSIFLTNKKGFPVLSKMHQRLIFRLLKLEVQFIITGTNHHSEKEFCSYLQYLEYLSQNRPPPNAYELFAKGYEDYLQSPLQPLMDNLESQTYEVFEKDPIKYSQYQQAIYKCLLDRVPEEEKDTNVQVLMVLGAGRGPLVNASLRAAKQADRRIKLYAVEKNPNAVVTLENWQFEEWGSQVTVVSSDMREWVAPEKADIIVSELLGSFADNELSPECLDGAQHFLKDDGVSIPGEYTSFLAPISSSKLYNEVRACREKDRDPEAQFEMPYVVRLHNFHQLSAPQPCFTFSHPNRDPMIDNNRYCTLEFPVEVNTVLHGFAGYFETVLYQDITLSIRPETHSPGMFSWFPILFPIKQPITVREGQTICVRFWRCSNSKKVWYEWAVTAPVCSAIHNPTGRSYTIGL
T1 sequence (Q9BQA1 whole entry partner): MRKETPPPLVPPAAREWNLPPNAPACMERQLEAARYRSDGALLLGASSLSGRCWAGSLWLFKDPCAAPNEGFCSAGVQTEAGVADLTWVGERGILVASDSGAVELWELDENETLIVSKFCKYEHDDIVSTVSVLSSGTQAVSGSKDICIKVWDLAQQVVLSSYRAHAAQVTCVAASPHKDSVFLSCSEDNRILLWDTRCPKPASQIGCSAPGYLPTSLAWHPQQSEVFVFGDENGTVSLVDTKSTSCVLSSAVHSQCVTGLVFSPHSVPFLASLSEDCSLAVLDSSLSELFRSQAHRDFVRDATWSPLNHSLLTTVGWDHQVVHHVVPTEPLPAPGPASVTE

| SMILES | pIC50 (PRMT5 [1]) | pIC50 [2] | pIC50 (PRMT5 [4]) | pIC50 (PRMT5 [5]) | pIC50 [6] | pIC50 [3] | MTAP intact/deleted ratio [6] |
| --- | --- | --- | --- | --- | --- | --- | --- |
| C[C@@H]1CC[C@@H](c2ccc(Cl)c(C(F)(F)F)c2)N(C(=O)C(=O)Nc2cncc(C(N)=O)c2)C1 (racemic) [Compound 337, rac-5-{2-[(2R,5S)-2-[4-Chloro-3-(trifluoromethyl)phenyl]-5-methylpiperidin-1-yl]-2-oxoacetamido}pyridine-3-carboxamide] | < 6.30 | < 6.00 | 6.30 to 7.30 | 6.30 to 7.30 | 6.00 to 7.00 | 5.00 to 6.00 | A (an IC50 ratio greater than or equal to 10 fold) |
| C[C@@H]1CC[C@@H](c2ccc3c(c2)CCCO3)N(C(=O)C(=O)Nc2cncc(C(N)=O)c2)C1 (racemic) [Compound 341, rac-5-{2-[(2R,5S)-2-(3,4-Dihydro-2H-1-benzopyran-6-yl)-5-methylpiperidin-1-yl]-2-oxoacetamido}pyridine-3-carboxamide] | 6.30 to 7.30 | < 6.00 | 6.30 to 7.30 | 6.30 to 7.30 | > 7.00 | 5.00 to 6.00 | A (an IC50 ratio greater than or equal to 10 fold) |
| NC(=O)c1cncc(NC(=O)C(=O)N2C[C@@H](CC(F)(F)F)CC[C@@H]2c2ccccc2)c1 (racemic) [Compound 342, 5-[[2-Oxo-2-[(2S,5S)-2-phenyl-5-(2,2,2-trifluoroethyl)-1-piperidyl]acetyl]amino]pyridine-3-carboxamide] | 6.30 to 7.30 | < 6.00 | < 6.30 | 6.30 to 7.30 | 6.00 to 7.00 | < 5.00 | A (an IC50 ratio greater than or equal to 10 fold) |
| C[C@@H]1CC[C@@H](c2ccc3c(c2)OCC3)N(C(=O)C(=O)Nc2cncc(C(N)=O)c2)C1 (racemic) [Compound 405, rac-5-{2-[(2R,5S)-2-(2,3-Dihydro-1-benzofuran-6-yl)-5-methylpiperidin-1-yl]-2-oxoacetamido}pyridine-3-carboxamide] | 6.30 to 7.30 | < 6.00 | 6.30 to 7.30 | 6.30 to 7.30 | > 7.00 | 5.00 to 6.00 | A (an IC50 ratio greater than or equal to 10 fold) |
| C[C@@H]1CC[C@H](c2ccc(NCC(=O)N(C)C)cc2)N(C(=O)C(=O)Nc2cncc(C(N)=O)c2)C1 (racemic) [Compound 422, 5-[[2-[(2R,5R)-2-[4-[[2-(Dimethylamino)-2-oxo-ethyl]amino]phenyl]-5-methyl-1-piperidyl]-2-oxo-acetyl]amino]pyridine-3-carboxamide] | 6.30 to 7.30 | < 6.00 | < 6.30 | 6.30 to 7.30 | 6.00 to 7.00 | < 5.00 | A (an IC50 ratio greater than or equal to 10 fold) |
| COc1cc(OC)cc([C@@H]2CC[C@@H](C)CN2C(=O)C(=O)Nc2cncc(C(N)=O)c2)c1 (racemic) [Compound 428, rac-5-{2-[(2R,5S)-2-(3,5-Dimethoxyphenyl)-5-methylpiperidin-1-yl]-2-oxoacetamido}pyridine-3-carboxamide] | < 6.30 | < 6.00 | < 6.30 | 6.30 to 7.30 | 6.00 to 7.00 | < 5.00 | A (an IC50 ratio greater than or equal to 10 fold) |
| C[C@@H]1CCN(C(=O)C(=O)Nc2cncc(C(N)=O)c2)[C@H](c2ccccc2)C1 (racemic) [Compound 442, 5-(2-(4-methyl-2-phenylpiperidin-1-yl)-2-oxoacetamido)nicotinamide] | 6.30 to 7.30 | < 6.00 | 6.30 to 7.30 | 6.30 to 7.30 | 6.00 to 7.00 | 5.00 to 6.00 | A (an IC50 ratio greater than or equal to 10 fold) |
| C[C@@H]1CC[C@@H](c2ccccc2)N(C(=O)C(=O)Nc2cnc(O)c(C(N)=O)c2)C1 (racemic) [Compound 494, rac-2-hydroxy-5-(2-((2R,5S)-5-methyl-2-phenylpiperidin-1-yl)-2-oxoacetamido)nicotinamide] | < 6.30 | < 6.00 | 6.30 to 7.30 | 6.30 to 7.30 | < 6.00 | < 5.00 | C (an IC50 ratio of less than 3 fold) |

Second part, led by results:

| pIC50 (PRMT5 [1]) | pIC50 [2] | pIC50 (PRMT5 [4]) | pIC50 (PRMT5 [5]) | pIC50 [6] | SMILES | pIC50 [3] | MTAP intact/deleted ratio [6] |
| --- | --- | --- | --- | --- | --- | --- | --- |
| 6.30 to 7.30 | < 6.00 | 6.30 to 7.30 | 6.30 to 7.30 | > 7.00 | C[C@@H]1CC[C@@H](c2ccc(Cl)c(F)c2)N(C(=O)C(=O)Nc2cncc(C(N)=O)c2)C1 (racemic) [Compound 327, rac-5-{2-[(2R,5S)-2-(4-Chloro-3-fluorophenyl)-5-methylpiperidin-1-yl]-2-oxoacetamido}pyridine-3-carboxamide] | 5.00 to 6.00 | A (an IC50 ratio greater than or equal to 10 fold) |
| 6.30 to 7.30 | < 6.00 | 6.30 to 7.30 | 6.30 to 7.30 | > 7.00 | C[C@@H]1CC[C@@H](c2ccc(F)c(Cl)c2)N(C(=O)C(=O)Nc2cncc(C(N)=O)c2)C1 (racemic) [Compound 338, rac-5-{2-[(2R,5S)-2-(3-Chloro-4-fluorophenyl)-5-methylpiperidin-1-yl]-2-oxoacetamido}pyridine-3-carboxamide] | 5.00 to 6.00 | A (an IC50 ratio greater than or equal to 10 fold) |
| < 6.30 | < 6.00 | < 6.30 | 6.30 to 7.30 | < 6.00 | NC(=O)c1cncc(NC(=O)C(=O)N2C[C@@H](O)CC[C@@H]2c2ccccc2)c1 (racemic) [Compound 349, 5-[[2-[(2R,5S)-5-Hydroxy-2-phenyl-1-piperidyl]-2-oxo-acetyl]amino]pyridine-3-carboxamide] | < 5.00 | C* (an IC50 ratio of less than 3 fold) |
| 6.30 to 7.30 | < 6.00 | 6.30 to 7.30 | > 7.30 | > 7.00 | C[C@@H]1CC[C@@H](c2ccc3sccc3c2)N(C(=O)C(=O)Nc2cncc(C(N)=O)c2)C1 (racemic) [Compound 409, rac-5-[[2-[(2S,5R)-2-(benzothiophen-5-yl)-5-methyl-1-piperidyl]-2-oxo-acetyl]amino]pyridine-3-carboxamide] | 5.00 to 6.00 | A (an IC50 ratio greater than or equal to 10 fold) |
| 6.30 to 7.30 | < 6.00 | 6.30 to 7.30 | 6.30 to 7.30 | 6.00 to 7.00 | C[C@@H]1CC[C@H](c2ccc(N[C@@H]3CCN(C)C3=O)cc2)N(C(=O)C(=O)Nc2cncc(C(N)=O)c2)C1 (racemic) [Compound 427, 5-[[2-[(2R,5R)-5-Methyl-2-[4-[[(3R)-1-methyl-2-oxo-pyrrolidin-3-yl]amino]phenyl]-1-piperidyl]-2-oxo-acetyl]amino]pyridine-3-carboxamide] | < 5.00 | A (an IC50 ratio greater than or equal to 10 fold) |
| 6.30 to 7.30 | < 6.00 | < 6.30 | 6.30 to 7.30 | < 6.00 | NC(=O)c1cncc(NC(=O)C(=O)N2CC[C@@H]3CCCC[C@@H]3C2)c1 (racemic) [Compound 429, 5-(2-(octahydroisoquinolin-2(1B)-yl)-2-oxoacetamido)nicotinamide] | < 5.00 | B (an IC50 ratio greater than or equal to 3 fold but lower than 10 fold) |
| 6.30 to 7.30 | < 6.00 | 6.30 to 7.30 | 6.30 to 7.30 | > 7.00 | C[C@@H]1CC[C@@H](c2ccc(N[C@@H]3CCN(C)C3=O)cc2)N(C(=O)C(=O)Nc2cncc(C(N)=O)c2)C1 (racemic) [Compound 430, 5-[[2-[(2S,5R)-5-Methyl-2-[4-[[(3R)-1-methyl-2-oxo-pyrrolidin-3-yl]amino]phenyl]-1-piperidyl]-2-oxo-acetyl]amino]pyridine-3-carboxamide] | 5.00 to 6.00 | A (an IC50 ratio greater than or equal to 10 fold) |
| 6.30 to 7.30 | < 6.00 | 6.30 to 7.30 | 6.30 to 7.30 | 6.00 to 7.00 | C[C@@H]1CN(C(=O)C(=O)Nc2cncc(C(N)=O)c2)[C@@H](c2ccccc2)C[C@H]1O (racemic) [Compound 459, rac-5-[[2-[(2R,4R,5R)-4-hydroxy-5-methyl-2-phenyl-1-piperidyl]-2-oxo-acetyl]amino]pyridine-3-carboxamide] | < 5.00 | A (an IC50 ratio greater than or equal to 10 fold) |
| 6.30 to 7.30 | < 6.00 | 6.30 to 7.30 | 6.30 to 7.30 | 6.00 to 7.00 | C[C@@H]1CN(C(=O)C(=O)Nc2cncc(C(N)=O)c2)[C@@H](c2ccccc2)C[C@@H]1O (racemic) [Compound 470, rac-5-[[2-[(2R,4S,5R)-4-hydroxy-5-methyl-2-phenyl-1-piperidyl]-2-oxo-acetyl]amino]pyridine-3-carboxamide] | < 5.00 | A (an IC50 ratio greater than or equal to 10 fold) |
